Measurements reported in patent publication US20230381269A1, “METHODS OF TREATING EYE DISORDERS” (Apellis Pharmaceuticals, Inc., priority 2020, published 2023).

Key:
[1] = Repeated intravitreal injection toxicology/toxicokinetics over nine months in cynomolgus monkeys; format: in vivo
Protocol: Preclinical studies in monkeys were performed to assess the safety and pharmacology of pegcetacoplan when injected intravitreally. Intravitreally administered pegcetacoplan in cynomolgus monkeys is distributed into the blood stream then further distributed and/or slowly eliminated from the body.

[2] = Pharmacokinetic profile of a single intravitreal dose in monkeys; format: in vivo; conditions: single intravitreal dose 10 mg/eye in both eyes
[3] = test system: patients with wet AMD; experiment: Phase 1b open label single ascending dose clinical trial, intravitreal injection; format: in vivo, human
Protocol: In some embodiments a dose for intravitreal injection of a compstatin analog (e.g., comprising two compstatin analog moieties and a PEG having a molecular weight of about 40 kD) is 5 mg-20 mg. In some embodiments the dose is 10 mg. In some embodiments the dose is 10 mg, 11 mg, 12 mg, 13 mg, 14 mg, 15 mg, 16 mg, 17 mg, 18 mg, 19 mg, or 20 mg. In certain particular embodiments the dose is 15 mg. In some embodiments, any of the afore-mentioned doses is administered by intravitreal injection in a volume of between 90 and 110 microliters, e.g., in a volume of 100 microliters. In some embodiments, any of the afore-mentioned doses is administered by intravitreal injection using a 27, 28, 29, or 30 gauge needle. […] In certain embodiments a combination of dose and needle gauge that allows administration by IVT injection in 10 seconds or less is selected. In certain embodiments a combination of dose and needle that allows administration of the dose by IVT injection in 5-6 seconds, or less, is used.
A Phase 1 open label, single ascending dose clinical trial of pegcetacoplan in patients with wet AMD and receiving anti-VEGF therapy (specifically, Lucentis®, Eylea® or Avastin®), was initiated to assess safety, tolerability and PK of pegcetacoplan. In this trial, patients receive a single dose of pegcetacoplan by intravitreal injection followed by 113 days of monitoring. […]

[4] = test system: patients with GA; experiment: Phase 2 randomized sham-controlled clinical trial in GA: change in GA lesion size; format: in vivo, human; conditions: 15 mg intravitreal monthly or every other month for 12 months vs sham
Protocol: A randomized, single-masked, sham-controlled clinical trial of pegcetacoplan in patients with GA was conducted. 246 patients aged ≥50 years were enrolled in the trial.
Patients were randomized in a 2:2:1:1 manner to receive 15 mg pegcetacoplan (APL-2) monthly, 15 mg pegcetacoplan every other month, sham injection monthly or sham injection every other month. Patients in the pegcetacoplan arms received a dose of 15 mg of pegcetacoplan, injected into the vitreous humor in a 0.1 cc volume, monthly or every other month for 12 months followed by six months of monitoring after the end of treatment. In the sham-injection cohorts, patients received a simulated injection. The safety, tolerability, PK, and evidence of activity of multiple intravitreal injections of pegcetacoplan in patients with GA in at least one eye were assessed. The primary efficacy endpoint was change in GA lesion size from baseline to month 12. […] The adverse event profile is depicted in FIG. 3. (See also Liao et al., Ophthalmology 127:186-195 (2020).)

[5] = test system: patients with GA; experiment: Post hoc OCT analysis of Phase 2 trial: progression outside GA lesions (large drusen to iRORA/cRORA, iRORA to cRORA); format: in vivo, human; conditions: for reduction in the risk of progression to cRORA compared with sham: 12 months
Protocol: Post hoc analysis was also conducted to assess disease progression outside of GA lesions. Participants in the study (n=246) were categorized into PM (n=86), EOM (n=79), and sham (n=81) categories. Eyes with missed injections and those that developed exudative AMD (whereupon pegcetacoplan treatment was discontinued) were excluded. […] Masked readers evaluated OCT scans outside a 500-micron perimeter from the GA border adhering to classification described in Sadda et al., Ophthalmology 125:537-548 (2018)). […] SD-OCT images obtained at baseline, Month 6, and Month 12 (using the Zeiss Cirrus or 156 Heidelberg Spectralis) using 7-line raster scans (30×5, 240 μm spacing, 7 sections, ART set to 25, 1536 A-scans) and volume scans (20×20; 49 sections, 120 μm spacing, ART set to 16, 512 A-scans) were graded following the CAM criteria independently by two masked readers at the Doheny Image Reading and Research Lab (DIRRL). A senior reader (and member of the CAM group) reviewed all questionable cases flagged by the readers and also adjudicated any discrepancies between graders in order to yield a single consensus result for each case.
Main outcome measures included assessments at baseline, Month 6 and Month 12 of: a) progression from large drusen (≥40 microns height) to incomplete/complete RPE and outer retina atrophy (iRORA and/or cRORA) and b) progression from iRORA to cRORA. Specifically, the endpoints for each treatment group were: proportion of study eyes with at least one iRORA at baseline that progressed to cRORA at 6 and 12 months, and proportion of individual baseline iRORA lesions that progressed to cRORA at 6 and 12 months.
Baseline characteristics were summarized using descriptive statistics. Continuous variables, such as GA lesion size, were summarized using the number of observations, mean, standard deviation, median, minimum, and maximum. Categorical variables, such as the presence of iRORA lesion(s) at baseline, were summarized using counts and percentages. The progression of iRORA to cRORA was summarized at Months 6 and 12 at both the study eye and lesion level. For the study-eye-level summaries, the subset of eyes with at least one iRORA lesion at baseline was included. If at least one iRORA lesion was present at baseline progressed to cRORA during follow-up, the eye was counted as having progressed. The proportion of study eyes with progression was compared between each pegcetacoplan group and the sham control group using a Pearson chi-square test. P values <0.05 were considered statistically significant. Risk ratios and their corresponding 95% confidence intervals were calculated as the proportion that progressed from iRORA to cRORA in the pegcetacoplan group divided by the proportion in the sham group. For the lesion-level summaries of progression, each iRORA lesion present at baseline was assessed separately for progression to a cRORA lesion; the proportion of lesions that progressed was compared between each pegcetacoplan group and the sham control group using descriptive statistics (counts and percentages).

What does the source list for “Poly(oxy-1,2-ethanediyl), α-hydro-ω-hydroxy-, 15,15′-diester with N-acetyl-L-isoleucyl-L-cysteinyl-L-valyl-1-methyl-L-tryptophyl-L-glutaminyl-L-α-aspartyl-L-tryptophylglycyl-L-alanyl-L-histidyl-L-arginyl-L-cysteinyl-L-threonyl-2-[2-(2-aminoethoxy)ethoxy]acetyl-N^6-carboxy-L-lysinamide cyclic (2->12)-(disulfide) [pegcetacoplan]”?
intraocular or serum accumulation over multiple injections ([1]; doses up to 24.8 mg/eye in 5% dextrose, 50 or 100 μL/eye): little intraocular or serum accumulation; full toxicological review (ophthalmological assessment, SD-OCT, electroretinography, tonometry, histopathology) ([1]; repeated intravitreal injections over nine months, doses up to 24.8 mg/eye): no evidence of pegcetacoplan-mediated changes; vitreal half-life [2]: approximately 3.2 days; apparent half-life of serum concentrations ([2]; serum): 10.4 days; post-dose day until which serum concentrations increased ([2]; serum): 7 days; serious adverse events ([3]; initial nine patients, single intravitreal dose 5, 10 or 20 mg): no serious adverse events were reported; tolerability ([3]; single intravitreal dose 5 mg, 10 mg, 20 mg in 100 microliters): well tolerated; rate of GA lesion growth (change in GA lesion size from baseline to month 12) [4]: reduced rate of lesion growth; reduction in the risk of progression to cRORA compared with sham ([5]; every other month, lesion level): 40%; reduction in the risk of progression to cRORA compared with sham ([5]; every other month, study-eye level): 30%; reduction in the risk of progression to cRORA compared with sham ([5]; monthly, lesion level): 41%; reduction in the risk of progression to cRORA compared with sham ([5]; monthly, study-eye level): 39%; Relative risk of progression from iRORA to cRORA vs sham (95% CI) ([5]; Month 6, PEOM, lesion level data): 0.51 (0.30-0.87); Relative risk of progression from iRORA to cRORA vs sham (95% CI) ([5]; Month 6, PEOM, study-eye level): 0.76 (0.45-1.29); Relative risk of progression from iRORA to cRORA vs sham (95% CI) ([5]; Month 6, PM, lesion level data): 0.53 (0.24-1.14); Relative risk of progression from iRORA to cRORA vs sham (95% CI) ([5]; Month 6, PM, study-eye level): 0.52 (0.23-1.18); progression from large drusen to iRORA/cRORA ([5]; Month 12, 15 mg monthly (PM)): 22.6%; Relative risk of progression from iRORA to cRORA vs sham (95% CI) ([5]; Month 12, PEOM, lesion level data): 0.60 (0.43-0.82); Relative risk of progression from iRORA to cRORA vs sham (95% CI) ([5]; Month 12, PEOM, study-eye level): 0.70 (0.50-0.98); Relative risk of progression from iRORA to cRORA vs sham (95% CI) ([5]; Month 12, PM, lesion level data): 0.59 (0.36-0.97); Relative risk of progression from iRORA to cRORA vs sham (95% CI) ([5]; Month 12, PM, study-eye level): 0.61 (0.37-1.00); progression events from large drusen to iRORA/cRORA vs sham (in words) ([5]; Month 12, monthly): relatively fewer progression events; rate of progression from nascent GA to GA compared to sham controls (in words) ([5]; intravitreal injections monthly or every other month): lower rate of progression from nascent GA to GA; rate of progression of iRORA lesions to cRORA ([5]; month 6, every other month (PEOM), lesion level): 20.0%; progression from iRORA to cRORA, proportion of study eyes ([5]; month 6, every other month (PEOM), study-eye level): 40.6%; rate of progression of iRORA lesions to cRORA ([5]; month 6, monthly (PM), lesion level): 20.7%; progression from iRORA to cRORA, proportion of study eyes ([5]; month 6, monthly (PM), study-eye level): 27.8%; rate of progression of iRORA lesions to cRORA ([5]; month 12, every other month (EOM), lesion level): 38.4%; progression from iRORA to cRORA, proportion of study eyes ([5]; month 12, every other month (PEOM), study-eye level): 57.6%; rate of progression of iRORA lesions to cRORA ([5]; month 12, monthly (PM), lesion level): 37.9%; progression from iRORA to cRORA, proportion of study eyes ([5]; month 12, monthly (PM), study-eye level): 50.0%; rate of progression from iRORA to cRORA compared to sham group (in words) ([5]; monthly or every other month): lower rate of progression from iRORA to cRORA
